Reference: patent publication US12391737B2, “Soluble NPY2 receptor agonists” (Boehringer Ingelheim International GmbH, priority 2020, dated 2025)

Key:
[1] = molecular target: T1, Human Neuropeptide Y2 Receptor (Homo sapiens, UniProt P49146); test: Radioligand binding competition assay (RLB); conditions: Table 3, 125I-PYY(1-36) competition; read-out: Ki
T1 construct: purchased CHEMICON HTS066M
T1 sequence (P49146 1-381): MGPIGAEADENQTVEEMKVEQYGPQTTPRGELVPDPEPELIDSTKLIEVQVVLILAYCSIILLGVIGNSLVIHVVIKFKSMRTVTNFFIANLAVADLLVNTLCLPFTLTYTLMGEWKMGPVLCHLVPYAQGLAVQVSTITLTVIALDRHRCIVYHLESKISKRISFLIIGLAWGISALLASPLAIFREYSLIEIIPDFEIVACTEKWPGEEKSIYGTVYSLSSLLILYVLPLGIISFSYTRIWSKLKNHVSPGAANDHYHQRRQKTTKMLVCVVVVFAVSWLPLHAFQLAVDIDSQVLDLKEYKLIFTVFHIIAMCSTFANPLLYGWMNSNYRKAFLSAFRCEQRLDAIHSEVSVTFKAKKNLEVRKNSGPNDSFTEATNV
Procedure, shortened: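 Filtration binding assay on human Y2 receptor membrane preparation, 0.5 μg protein per well, in 50 mM HEPES pH 7.4 containing 5 mM MgCl2, 1 mM CaCl2 and 0.2% ovalbumin. Plates shake 2 h at room temperature before harvest and scintillation counting.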

[2] = molecular target: T2, human NPY1 receptor (hY1R) (Homo sapiens, UniProt P25929); test: HTRF cAMP Gi assay, hY1R; format: cell-based; conditions: CHO-K1 cells
T2 construct: expressed in transfected cells; host or cells: CHO-K1
T2 sequence (P25929 1-384): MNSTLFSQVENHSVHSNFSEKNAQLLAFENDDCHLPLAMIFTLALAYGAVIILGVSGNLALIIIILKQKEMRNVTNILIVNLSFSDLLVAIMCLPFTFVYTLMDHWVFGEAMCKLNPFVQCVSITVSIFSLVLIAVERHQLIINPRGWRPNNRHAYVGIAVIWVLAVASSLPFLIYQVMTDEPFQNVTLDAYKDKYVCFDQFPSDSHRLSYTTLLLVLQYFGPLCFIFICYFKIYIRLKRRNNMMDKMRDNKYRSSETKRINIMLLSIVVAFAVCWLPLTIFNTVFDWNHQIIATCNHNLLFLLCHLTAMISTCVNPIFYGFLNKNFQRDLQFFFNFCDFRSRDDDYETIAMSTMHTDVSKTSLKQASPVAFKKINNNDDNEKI
Method: Briefly, the production of intracellular cAMP will generate a competition between unlabeled cAMP and exogenously added d2-cAMP for anti-cAMP antibodies conjugated to cryptate. CHO-K1 cells stably expressing the human NPY1, NPY2, NPY4 and NPY5 receptors were used with the cells brought to life from a frozen stock immediately before assay performance. 2000 cells per well were applied for all four NPY receptor subtype assays. A 384-well format was used applying a total volume of 20 μl using 5 μl cells, 2.5 μl peptide agonist, 2.5 μl forskolin and 5 μl of each of the fluorophores. […] Concentration-response evaluation of compounds was performed with 11 concentrations of agonist peptides (covering 3 decades). EC50 values were calculated by nonlinear regression using sigmoid concentration-response with variable slope.

[3] = molecular target: T3, human NPY4 receptor (hY4R) (Homo sapiens, UniProt P50391); test: HTRF cAMP Gi assay, hY4R; format: cell-based; conditions: CHO-K1 cells
T3 construct: expressed in transfected cells; host or cells: CHO-K1
T3 sequence (P50391 whole entry): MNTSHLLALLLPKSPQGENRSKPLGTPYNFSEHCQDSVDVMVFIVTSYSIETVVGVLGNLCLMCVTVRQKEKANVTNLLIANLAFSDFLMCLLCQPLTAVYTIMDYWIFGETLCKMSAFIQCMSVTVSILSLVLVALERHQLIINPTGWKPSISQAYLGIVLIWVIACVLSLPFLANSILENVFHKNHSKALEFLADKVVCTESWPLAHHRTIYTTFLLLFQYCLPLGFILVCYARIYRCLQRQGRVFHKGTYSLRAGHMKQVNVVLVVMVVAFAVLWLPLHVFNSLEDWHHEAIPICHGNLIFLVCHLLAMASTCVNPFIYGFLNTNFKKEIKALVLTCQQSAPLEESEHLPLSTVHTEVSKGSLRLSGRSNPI

[4] = Solubility determination; conditions: for Sol6: pH 6; for Sol7: pH 7
Procedure, shortened: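 Shake-flask style: 10 mg/ml peptide (TFA salt), 0.1 M sodium diphosphate pH 6.4/7.0, 600 rpm, 2 h, RT; filter; dilute 1 mg/ml in 50% MeCN; RP-UPLC, 0–100% B over 2 min, 50 °C. Solubility = sample/control area ratio. Final pH recorded.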

[5] = molecular target: T4, human NPY2 receptor (hY2R) (Homo sapiens, UniProt P49146); test: HTRF cAMP Gi assay, hY2R
T4 sequence (P49146 1-381): T1 sequence (P49146 1-381)
From the text: The Homogenous Time Resolved fluorescence (HTRF) technology optimized for Gi coupled receptors has thoroughly been described in Cisbio cAMP Gi kit manual. Briefly, the production of intracellular cAMP will generate a competition between unlabeled cAMP and exogenously added d2-cAMP for anti-cAMP antibodies conjugated to cryptate. CHO-K1 cells stably expressing the human NPY1, NPY2, NPY4 and NPY5 receptors were used with the cells brought to life from a frozen stock immediately before assay performance. 2000 cells per well were applied for all four NPY receptor subtype assays. A 384-well format was used applying a total volume of 20 μl using 5 μl cells, 2.5 μl peptide agonist, 2.5 μl forskolin and 5 μl of each of the fluorophores. […] Concentration-response evaluation of compounds was performed with 11 concentrations of agonist peptides (covering 3 decades). EC50 values were calculated by nonlinear regression using sigmoid concentration-response with variable slope.

[6] = molecular target: T5, human NPY5 receptor (hY5R) (Homo sapiens, UniProt Q15761); test: HTRF cAMP Gi assay, hY5R
T5 sequence (Q15761 1-445): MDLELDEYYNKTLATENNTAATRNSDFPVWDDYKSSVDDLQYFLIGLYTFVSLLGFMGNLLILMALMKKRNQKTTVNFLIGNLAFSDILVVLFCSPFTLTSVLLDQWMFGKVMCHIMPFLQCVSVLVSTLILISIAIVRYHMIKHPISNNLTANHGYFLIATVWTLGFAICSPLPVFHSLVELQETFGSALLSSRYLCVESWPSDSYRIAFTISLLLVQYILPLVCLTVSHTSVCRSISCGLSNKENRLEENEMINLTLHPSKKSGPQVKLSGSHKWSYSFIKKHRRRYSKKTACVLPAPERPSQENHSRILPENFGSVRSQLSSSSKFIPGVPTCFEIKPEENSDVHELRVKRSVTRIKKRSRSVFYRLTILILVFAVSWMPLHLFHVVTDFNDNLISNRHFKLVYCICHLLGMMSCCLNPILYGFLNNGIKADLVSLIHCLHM

SMILES	Ki [1] [nM]	EC50 [2] [nM]	EC50 [3] [nM]	Sol6 [4] [mg/mL]	Sol7 [4] [mg/mL]	EC50 [5] [nM]	EC50 [6] [nM]
CC(C)CC(=O)N[C@@H](C)C(=O)N1CCC[C@H]1C(=O)N[C@@H](CCC(=O)O)C(=O)N[C@@H](CCCCNC(=O)CCCCCNC(=O)CC[C@H](NC(=O)CCCCCCCCCCCCCCCCC(=O)O)C(=O)O)C(=O)N1CCC[C@H]1C(=O)N[C@@H](CCC(=O)O)C(=O)N[C@@H](CCC(=O)O)C(=O)N[C@@H](CC(=O)O)C(=O)N[C@@H](C)C(=O)N[C@@H](CCC(=O)O)C(=O)N1CCC[C@H]1C(=O)N[C@@H](CCC(=O)O)C(=O)N[C@@H](CCC(=O)O)C(=O)N[C@H](C(=O)N[C@@H](CCC(N)=O)C(=O)N[C@@H](CCCNC(=N)N)C(=O)N[C@@H](Cc1ccc(O)cc1)C(=O)N[C@@H](Cc1ccc(O)cc1)C(=O)N[C@H](C(=O)N[C@@H](CO)C(=O)N[C@@H](CC(C)C)C(=O)N[C@@H](CCCNC(=N)N)C(=O)N[C@@H](Cc1c[nH]cn1)C(=O)N[C@@H](Cc1ccc(O)cc1)C(=O)N[C@@H](Cc1ccc(O)cc1)C(=O)N[C@@H](CC(N)=O)C(=O)N[C@@H](Cc1c[nH]c2ccccc12)C(=O)N[C@@H](CC(C)C)C(=O)N[C@H](C(=O)N[C@@H](CCCNC(=N)N)C(=O)N[C@@H](CCC(N)=O)C(=O)N[C@@H](CCCNC(=N)N)C(=O)N[C@@H](Cc1ccc(O)cc1)C(N)=O)[C@@H](C)O)C(C)C)C(C)C [Compound 53, N{alpha-4}-(3-methylbutanoyl)-N{epsilon-7}-(6-[(4S)-4-carboxy-4-(17-carboxyheptadecanamido)butanamido]hexanoyl)-[4A,7K,9E,13E,17V,18Q,22V,28Y,30W,31L]-hPYY(4-36)]	3.07	> 5000	> 5000	8.7	9.6	0.352	> 5000
CC[C@H](C)[C@H](NC(=O)[C@H](CCC(=O)O)NC(=O)[C@H](CCC(=O)O)NC(=O)[C@H](CCC(=O)O)NC(=O)[C@H](CO)NC(=O)[C@H](C)NC(=O)[C@H](CC(=O)O)NC(=O)[C@H](CCC(=O)O)NC(=O)[C@H](CCC(=O)O)NC(=O)[C@@H]1CCCN1C(=O)[C@H](CCCCNC(=O)CCCCCNC(=O)CC[C@H](NC(=O)CCCCCCCCCCCCCCCCC(=O)O)C(=O)O)NC(=O)[C@H](CCC(=O)O)NC(=O)[C@@H]1CCCN1C(=O)[C@H](C)NC(=O)CC(C)C)C(=O)N[C@@H](CCC(N)=O)C(=O)N[C@@H](CCCNC(=N)N)C(=O)N[C@@H](Cc1ccc(O)cc1)C(=O)N[C@@H](Cc1ccc(O)cc1)C(=O)N[C@H](C(=O)N[C@@H](CO)C(=O)N[C@@H](CC(C)C)C(=O)N[C@@H](CCCNC(=N)N)C(=O)N[C@@H](Cc1c[nH]cn1)C(=O)N[C@@H](Cc1ccc(O)cc1)C(=O)N[C@@H](Cc1ccc(O)cc1)C(=O)N[C@@H](CC(N)=O)C(=O)N[C@@H](Cc1c[nH]c2ccccc12)C(=O)N[C@@H](CC(C)C)C(=O)N[C@H](C(=O)N[C@@H](CCCNC(=N)N)C(=O)N[C@@H](CCC(N)=O)C(=O)N[C@@H](CCCNC(=N)N)C(=O)N[C@@H](Cc1ccc(O)cc1)C(N)=O)[C@@H](C)O)C(C)C [Compound 55, N{alpha-4}-(3-methylbutanoyl)-N{epsilon-7}-(6-[(4S)-4-carboxy-4-(17-carboxyheptadecanamido)butanamido]hexanoyl)-[4A,7K,9E,14E,17I,18Q,22V,28Y,30W,31L]-hPYY(4-36)]	2.96	> 5000	> 5000	>10.0	>10.0	0.352	> 5000
CC[C@H](C)[C@H](NC(=O)[C@H](Cc1ccc(O)cc1)NC(=O)[C@H](Cc1ccc(O)cc1)NC(=O)[C@H](CCCNC(=N)N)NC(=O)[C@H](CCC(N)=O)NC(=O)[C@@H](NC(=O)[C@H](CCC(=O)O)NC(=O)[C@H](CCC(=O)O)NC(=O)[C@@H]1CCCN1C(=O)[C@H](CO)NC(=O)[C@H](C)NC(=O)[C@H](CC(=O)O)NC(=O)[C@H](CCC(=O)O)NC(=O)[C@H](CCC(=O)O)NC(=O)[C@@H]1CCCN1C(=O)[C@H](CCCCNC(=O)CCCCCNC(=O)CC[C@H](NC(=O)CCCCCCCCCCCCCCCCC(=O)O)C(=O)O)NC(=O)[C@H](C)NC(=O)[C@@H]1CCCN1C(=O)[C@H](C)NC(=O)CC(C)C)[C@@H](C)CC)C(=O)N[C@@H](CO)C(=O)N[C@@H](CC(C)C)C(=O)N[C@@H](CCCNC(=N)N)C(=O)N[C@@H](Cc1c[nH]cn1)C(=O)N[C@@H](Cc1ccc(O)cc1)C(=O)N[C@@H](Cc1ccc(O)cc1)C(=O)N[C@@H](CC(N)=O)C(=O)N[C@@H](Cc1c[nH]c2ccccc12)C(=O)N[C@@H](CC(C)C)C(=O)N[C@H](C(=O)N[C@@H](CCCNC(=N)N)C(=O)N[C@@H](CCC(N)=O)C(=O)N[C@@H](CCCNC(=N)N)C(=O)N[C@@H](Cc1ccc(O)cc1)C(N)=O)[C@@H](C)O [Compound 195, N{alpha-4}-(3-methylbutanoyl)-N{epsilon-7}-(6-[(4S)-4-carboxy-4-(17-carboxyheptadecanamido)butanamido]hexanoyl)-[4A,6A,7K,9E,17I,18Q,22I,28Y,30W,31L]-hPYY(4-36)]	0.78	> 5000	> 5000	8.2	8.2	0.197	> 5000
